Assay results taken from ChEMBL document CHEMBL6096658, “Discovery of Potent, Highly Selective, and Efficacious SMARCA2 Degraders” (J Med Chem, 2025).
Active and inactive are the calls of the source. No cut-off for these calls is given here.

Assays:
[1] = molecular target: T1, von Hippel-Lindau disease tumor suppressor/SWI/SNF-related matrix-associated actin-dependent regulator of chromatin subfamily A member 4 (Homo sapiens, UniProt P51532+P40337); assay: PROTAC activity at VHL/SMARCA4 in human HT-1080 cells assessed as induction of SMARCA4 degradation incubated for 24 hrs by Nano-Glo HiBiT Lytic Detection Assay; format: cell-based
Target sequence in this assay (P51532 whole entry): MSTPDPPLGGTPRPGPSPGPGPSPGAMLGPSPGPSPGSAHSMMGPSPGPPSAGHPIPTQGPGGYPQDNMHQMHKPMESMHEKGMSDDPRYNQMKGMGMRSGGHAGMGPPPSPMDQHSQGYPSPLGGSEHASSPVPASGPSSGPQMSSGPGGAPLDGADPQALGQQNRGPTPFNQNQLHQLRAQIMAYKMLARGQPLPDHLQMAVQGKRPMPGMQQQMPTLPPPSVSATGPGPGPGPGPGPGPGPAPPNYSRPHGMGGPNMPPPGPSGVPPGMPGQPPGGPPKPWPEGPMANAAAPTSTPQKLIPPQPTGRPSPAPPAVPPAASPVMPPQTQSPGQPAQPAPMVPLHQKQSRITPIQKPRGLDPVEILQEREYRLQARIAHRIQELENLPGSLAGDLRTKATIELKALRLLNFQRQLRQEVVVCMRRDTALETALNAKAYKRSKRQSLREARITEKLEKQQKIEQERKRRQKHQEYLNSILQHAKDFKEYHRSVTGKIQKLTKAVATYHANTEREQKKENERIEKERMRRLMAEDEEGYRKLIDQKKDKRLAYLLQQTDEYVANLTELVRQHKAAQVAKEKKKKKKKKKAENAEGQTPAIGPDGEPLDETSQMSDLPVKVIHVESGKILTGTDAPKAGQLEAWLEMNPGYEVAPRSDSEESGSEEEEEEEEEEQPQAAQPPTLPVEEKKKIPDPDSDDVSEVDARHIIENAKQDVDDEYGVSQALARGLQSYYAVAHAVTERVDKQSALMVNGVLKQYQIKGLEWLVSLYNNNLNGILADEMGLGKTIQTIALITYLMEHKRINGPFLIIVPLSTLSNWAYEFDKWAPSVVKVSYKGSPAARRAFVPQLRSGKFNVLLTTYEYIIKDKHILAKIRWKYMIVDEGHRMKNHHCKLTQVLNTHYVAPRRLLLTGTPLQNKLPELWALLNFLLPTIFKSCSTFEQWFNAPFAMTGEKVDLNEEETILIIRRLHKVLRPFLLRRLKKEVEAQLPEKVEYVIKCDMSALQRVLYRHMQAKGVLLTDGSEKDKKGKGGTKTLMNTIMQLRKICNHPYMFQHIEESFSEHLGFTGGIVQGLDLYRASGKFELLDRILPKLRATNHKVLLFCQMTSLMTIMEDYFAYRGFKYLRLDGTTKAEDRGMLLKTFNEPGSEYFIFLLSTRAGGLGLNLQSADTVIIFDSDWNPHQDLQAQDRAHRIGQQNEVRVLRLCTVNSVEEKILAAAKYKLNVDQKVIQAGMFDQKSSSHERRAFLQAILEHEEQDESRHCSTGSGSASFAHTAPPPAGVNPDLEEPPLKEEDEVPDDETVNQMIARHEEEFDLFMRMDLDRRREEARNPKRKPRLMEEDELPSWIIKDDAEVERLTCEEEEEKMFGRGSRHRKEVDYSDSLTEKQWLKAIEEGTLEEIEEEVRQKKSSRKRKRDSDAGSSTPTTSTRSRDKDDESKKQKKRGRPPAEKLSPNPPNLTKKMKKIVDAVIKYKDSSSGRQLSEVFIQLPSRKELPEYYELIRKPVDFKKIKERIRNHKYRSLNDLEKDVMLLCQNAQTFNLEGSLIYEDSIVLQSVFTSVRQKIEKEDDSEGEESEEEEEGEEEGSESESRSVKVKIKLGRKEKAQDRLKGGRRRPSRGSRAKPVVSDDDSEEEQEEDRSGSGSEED
Target sequence in this assay (P40337 whole entry): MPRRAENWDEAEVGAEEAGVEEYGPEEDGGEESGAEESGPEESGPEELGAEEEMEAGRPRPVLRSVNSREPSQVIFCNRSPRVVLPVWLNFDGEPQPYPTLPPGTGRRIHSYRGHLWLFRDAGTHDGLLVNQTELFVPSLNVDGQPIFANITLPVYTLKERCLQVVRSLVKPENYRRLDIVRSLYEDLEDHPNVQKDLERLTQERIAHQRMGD

[2] = molecular target: SWI/SNF-related matrix-associated actin-dependent regulator of chromatin subfamily A member 2 (Homo sapiens, UniProt P51531); assay: Binding affinity to SMARCA2 (unknown origin) incubated for 30 mins by HTRF assay
[3] = tested on: Calu-6; assay: Antiproliferative activity against human Calu-6 cells assessed as inhibition of cell growth at 1 uM incubated for 6 days by Cell Titer Glo assay; format: functional; conditions: Calu-6, 144 h, time 6 day
[4] = molecular target: T1, von Hippel-Lindau disease tumor suppressor/SWI/SNF-related matrix-associated actin-dependent regulator of chromatin subfamily A member 4; assay: PROTAC activity at VHL/SMARCA4 in human HT-1080 cells assessed as induction of SMARCA4 degradation by measuring maximum efficacy incubated for 6 hrs by Nano-Glo HiBiT Lytic Detection Assay relative to control; format: cell-based
[5] = molecular target: T2, von Hippel-Lindau disease tumor suppressor/SWI/SNF-related matrix-associated actin-dependent regulator of chromatin subfamily A member 2 (Homo sapiens, UniProt P51531+P40337); assay: Binding affinity to flag-tagged SMARCA2/VHL (unknown origin) assessed as ternary complex formation by measuring HTRF signal incubated for 120 mins by Envision reader analysis; format: protein assay
[6] = molecular target: T2, von Hippel-Lindau disease tumor suppressor/SWI/SNF-related matrix-associated actin-dependent regulator of chromatin subfamily A member 2; assay: PROTAC activity at VHL/SMARCA2 in human HT-1080 cells assessed as induction of SMARCA2 degradation incubated for 24 hrs by Nano-Glo HiBiT Lytic Detection Assay; format: cell-based
Target sequence in this assay (P51531 whole entry): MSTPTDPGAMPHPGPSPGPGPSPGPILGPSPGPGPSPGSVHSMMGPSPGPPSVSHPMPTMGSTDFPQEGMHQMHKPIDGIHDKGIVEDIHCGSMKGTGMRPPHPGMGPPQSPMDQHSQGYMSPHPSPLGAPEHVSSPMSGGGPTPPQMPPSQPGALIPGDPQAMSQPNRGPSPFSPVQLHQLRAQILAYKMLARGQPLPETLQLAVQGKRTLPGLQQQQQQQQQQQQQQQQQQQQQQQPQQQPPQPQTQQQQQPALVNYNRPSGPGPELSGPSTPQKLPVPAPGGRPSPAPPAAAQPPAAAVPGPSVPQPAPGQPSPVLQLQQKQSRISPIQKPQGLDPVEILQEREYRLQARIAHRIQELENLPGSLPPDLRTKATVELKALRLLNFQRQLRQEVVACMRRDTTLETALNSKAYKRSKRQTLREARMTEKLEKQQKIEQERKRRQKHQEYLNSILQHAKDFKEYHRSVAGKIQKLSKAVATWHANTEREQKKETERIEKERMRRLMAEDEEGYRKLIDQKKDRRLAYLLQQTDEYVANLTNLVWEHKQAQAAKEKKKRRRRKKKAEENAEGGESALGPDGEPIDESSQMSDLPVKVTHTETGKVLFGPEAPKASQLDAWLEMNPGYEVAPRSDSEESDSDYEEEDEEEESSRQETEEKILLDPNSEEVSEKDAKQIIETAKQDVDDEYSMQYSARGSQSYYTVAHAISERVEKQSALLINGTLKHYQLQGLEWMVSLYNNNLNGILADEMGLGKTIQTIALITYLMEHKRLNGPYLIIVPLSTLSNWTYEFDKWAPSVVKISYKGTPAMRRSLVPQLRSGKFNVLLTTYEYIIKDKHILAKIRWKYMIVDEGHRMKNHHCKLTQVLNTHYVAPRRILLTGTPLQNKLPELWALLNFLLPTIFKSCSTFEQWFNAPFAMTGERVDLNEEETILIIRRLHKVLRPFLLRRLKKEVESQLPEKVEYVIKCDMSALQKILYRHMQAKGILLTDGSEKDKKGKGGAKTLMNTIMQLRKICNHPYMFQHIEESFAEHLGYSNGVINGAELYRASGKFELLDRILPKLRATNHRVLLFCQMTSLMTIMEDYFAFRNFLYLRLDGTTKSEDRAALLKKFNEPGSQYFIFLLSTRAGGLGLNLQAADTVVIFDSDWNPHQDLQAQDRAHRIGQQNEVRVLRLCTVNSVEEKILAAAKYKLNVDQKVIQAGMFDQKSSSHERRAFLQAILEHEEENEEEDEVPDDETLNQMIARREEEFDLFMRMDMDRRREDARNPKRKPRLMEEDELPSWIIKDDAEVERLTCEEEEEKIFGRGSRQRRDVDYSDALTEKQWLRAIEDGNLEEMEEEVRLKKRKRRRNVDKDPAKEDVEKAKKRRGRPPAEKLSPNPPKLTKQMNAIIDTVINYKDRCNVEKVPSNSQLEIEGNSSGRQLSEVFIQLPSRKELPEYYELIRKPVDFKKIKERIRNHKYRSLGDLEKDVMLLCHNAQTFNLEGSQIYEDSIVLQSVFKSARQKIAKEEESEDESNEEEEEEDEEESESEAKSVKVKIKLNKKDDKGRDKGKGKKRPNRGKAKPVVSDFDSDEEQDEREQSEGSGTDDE
Target sequence in this assay (P40337 whole entry): as the sequence (P40337 whole entry) above

[7] = tested on: Calu-6; assay: Antiproliferative activity against human Calu-6 cells assessed as cell growth inhibition incubated for 6 days by Cell Titer Glo assay; format: functional; conditions: Calu-6, 144 h, time 6 day
[8] = Selectivity ratio of DC50 for PROTAC activity at VHL/SMARCA4 in human HT-1080 cells (unknown origin) to DC50 for VHL/SMARCA2 in human HT-1080 cells (unknown origin); format: cell-based
[9] = molecular target: SWI/SNF-related matrix-associated actin-dependent regulator of chromatin subfamily A member 4 (Homo sapiens, UniProt P51532); assay: Binding affinity to SMARCA4 (unknown origin) incubated for 30 mins by HTRF assay
[10] = molecular target: von Hippel-Lindau disease tumor suppressor (Homo sapiens, UniProt P40337); assay: Binding affinity to VHL (unknown origin) incubated for 30 mins by HTRF assay
Chain of von Hippel-Lindau disease tumor suppressor (P40337 whole entry): as above

[11] = tested on: NCI-H838; assay: Antiproliferative activity against human NCI-H838 cells assessed as cell growth inhibition incubated for 6 days by Cell Titer Glo assay; format: functional; conditions: NCI-H838, 144 h, time 6 day
[12] = molecular target: T2, von Hippel-Lindau disease tumor suppressor/SWI/SNF-related matrix-associated actin-dependent regulator of chromatin subfamily A member 2; assay: PROTAC activity at VHL/SMARCA2 in human HT-1080 cells assessed as induction of SMARCA2 degradation by measuring maximum efficacy incubated for 6 hrs by Nano-Glo HiBiT Lytic Detection Assay relative to control; format: cell-based
[13] = Metabolic stability in female BALB/c mouse microsomes assessed as hepatic extraction ratio administered intravenously; format: ADME; conditions: route iv, read-out: ERH
[14] = Metabolic stability in female BALB/c mouse microsomes assessed as half life administered intravenously; format: ADME; conditions: route iv
[15] = molecular target: T1, von Hippel-Lindau disease tumor suppressor/SWI/SNF-related matrix-associated actin-dependent regulator of chromatin subfamily A member 4; assay: In vivo PROTAC activity at VHL/ SMARCA4 in female BALB/c mouse xenografted with human HT-1080 cells assessed as increase in SMARCA4 level administered intravenously and measured after 24 hrs; format: functional, organism-based; conditions: route iv
[16] = tested on: NCI-H1568; assay: Antiproliferative activity against human NCI-H1568 cells assessed as inhibition of cell proliferation incubated for 6 days by Cell Titer Glo assay; format: functional, cell-based; conditions: time 6.0 day
[17] = molecular target: T2, von Hippel-Lindau disease tumor suppressor/SWI/SNF-related matrix-associated actin-dependent regulator of chromatin subfamily A member 2; assay: PROTAC activity at VHL/SMARCA2 in human HT-1080 cells assessed as induction of SMARCA2 degradation pretreated with MG132 followed by compound addition and measured after 6 hrs by Nano-Glo HiBiT Lytic Detection Assay; format: cell-based
[18] = molecular target: T2, von Hippel-Lindau disease tumor suppressor/SWI/SNF-related matrix-associated actin-dependent regulator of chromatin subfamily A member 2; assay: In vivo PROTAC activity at VHL/ SMARCA2 in female BALB/c mouse xenografted with human HT-1080 cells assessed as reduction in SMARCA2 level in tumor at 10 mg/kg, iv measured after 24 hrs relative to control; format: functional, organism-based; parameters: scale not given: the % may be the effect or the level left
[19] = molecular target: T2, von Hippel-Lindau disease tumor suppressor/SWI/SNF-related matrix-associated actin-dependent regulator of chromatin subfamily A member 2; assay: PROTAC activity at VHL/SMARCA2 in human HT-1080 cells assessed as induction of SMARCA2 degradation at 0.02 to 1000 nM by Nano-Glo HiBiT Lytic Detection Assay; format: cell-based; conditions: dose 0.02-1000 nM, time 6-24 hrs
[20] = tested on: NCI-H838; assay: Antiproliferative activity against human NCI-H838 cells assessed as inhibition of cell proliferation incubated for 6 days by Cell Titer Glo assay; format: functional, cell-based; conditions: time 6.0 day
[21] = molecular target: T1, von Hippel-Lindau disease tumor suppressor/SWI/SNF-related matrix-associated actin-dependent regulator of chromatin subfamily A member 4; assay: PROTAC activity at VHL/SMARCA4 in human HT-1080 cells assessed as induction of SMARCA4 degradation pretreated with MLN4924 followed by compound addition and measured after 6 hrs by Nano-Glo HiBiT Lytic Detection Assay; format: cell-based
[22] = tested on: HT-1080; assay: Antiproliferative activity against wild type human HT-1080 cells assessed as inhibition of cell proliferation incubated for 6 days by Cell Titer Glo assay; format: functional, cell-based; conditions: time 6.0 day
[23] = molecular target: T1, von Hippel-Lindau disease tumor suppressor/SWI/SNF-related matrix-associated actin-dependent regulator of chromatin subfamily A member 4; assay: PROTAC activity at VHL/SMARCA4 in human HT-1080 cells assessed as induction of SMARCA4 degradation pretreated with MG132 followed by compound addition and measured after 6 hrs by Nano-Glo HiBiT Lytic Detection Assay; format: cell-based
[24] = tested on: NCI-H1573; assay: Antiproliferative activity against human NCI-H1573 cells assessed as inhibition of cell proliferation incubated for 6 days by Cell Titer Glo assay; format: functional, cell-based; conditions: time 6.0 day
[25] = molecular target: T2, von Hippel-Lindau disease tumor suppressor/SWI/SNF-related matrix-associated actin-dependent regulator of chromatin subfamily A member 2; assay: PROTAC activity at VHL/SMARCA2 in human HT-1080 cells assessed as induction of SMARCA2 degradation measured after 6 hrs by Nano-Glo HiBiT Lytic Detection Assay; format: cell-based; conditions: dose 0.02-1000 nM
[26] = molecular target: T2, von Hippel-Lindau disease tumor suppressor/SWI/SNF-related matrix-associated actin-dependent regulator of chromatin subfamily A member 2; assay: PROTAC activity at VHL/SMARCA2 in human HT-1080 cells assessed as induction of SMARCA2 degradation pretreated with MLN4924 followed by compound addition and measured after 6 hrs by Nano-Glo HiBiT Lytic Detection Assay; format: cell-based
[27] = tested on: Calu-6; assay: Antiproliferative activity against wild type human Calu-6 cells assessed as inhibition of cell proliferation incubated for 6 days by Cell Titer Glo assay; format: functional, cell-based; conditions: time 6.0 day
[28] = tested on: NCI-H1373; assay: Antiproliferative activity against wild type human NCI-H1373 cells assessed as inhibition of cell proliferation incubated for 6 days by Cell Titer Glo assay; format: functional, cell-based; conditions: time 6.0 day
[29] = molecular target: T2, von Hippel-Lindau disease tumor suppressor/SWI/SNF-related matrix-associated actin-dependent regulator of chromatin subfamily A member 2; assay: In vivo PROTAC activity at VHL/ SMARCA2 in female BALB/c mouse xenografted with human HT-1080 cells assessed as reduction in SMARCA2 level in tumor at 1 mg/kg, iv measured after 24 hrs relative to control; format: functional, organism-based; parameters: scale not given: the % may be the effect or the level left

DC50 [1] [nM] | Emax [4] [%] | DC50 [6] [nM] | GI50 [7] [nM] | IC50 [10] [nM] | GI50 [11] [nM] | Emax [12] [%] | half-life [14] [h] | SMILES | Ratio [8] | further results
63 | 69 | 1.7 | > 1000 | 8.6 | 27 | 97 |  | Cc1ncsc1-c1ccc([C@H](C)NC(=O)[C@@H]2C[C@@H](O)CN2C(=O)[C@@H](c2cc(N3CCC(CN4CCC(c5ccc6c(c5)-n5c(nc(=O)c7c(Cl)cccc75)C6(C)C)CC4)CC3)no2)C(C)C)cc1 | 37 | IC50 [2]: 30 nM; inhibition at 1 µM [3]: < 15%; Activity [5]: Active; Smarca2-Vhl Shows 60% Greater Auc Compared To Smarca4-Vhl Was Observed; IC50 [9]: 63 nM
12 | 78 | 0.28 | > 1000 | 1.5 | 32 | 97 | 1.5 | Cc1ncsc1-c1ccc([C@H](C)NC(=O)[C@@H]2C[C@@H](O)CN2C(=O)[C@@H](n2cc([C@H]3CC[C@H](CN4CCC(c5ccc6c(c5)C(C)(C)c5nc(=O)c7c(Cl)cccc7n5-6)CC4)CC3)nn2)C(C)(C)C)cc1 | 43 | hepatic extraction ratio [13]: 0.44
94 | 68 | 1.3 | > 1000 | 25 | 34 | 97 | 10 | Cc1ncsc1-c1ccc([C@H](C)NC(=O)[C@@H]2C[C@@H](O)CN2C(=O)[C@@H](n2cc([C@H]3CC[C@H](CN4CCC(c5ccc6c(c5)-n5c(nc(=O)c7c(Cl)cccc75)C6(C)C)CC4)CC3)nn2)C(C)(C)C)cc1 | 72 | Activity [15]: Active; Activity [16]: Active; Activity [17]: inactive; Activity [18]: > 95%; Activity [19]: Time-dependent-effect; Activity [20]: Active; Activity [21]: inactive; Activity [22]: Active; Less Activity Observed; Activity [23]: inactive; Activity [24]: Active; Activity [25]: Dose-dependent-effect; Activity [26]: inactive; Activity [27]: Active; Less Activity Observed; Activity [28]: Active; Less Activity Observed; Activity [29]: 83%
